Assay results from paper doi:10.1101/2024.02.29.582594, “Hachiman is a genome integrity sensor” (bioRxiv, 2024).

Target: T1, HamB (Escherichia coli, UniProt A0A426EXV0)
T1 construct: gene DU321_04165; full-length HamB alone, N-terminal 10xHis-MBP-TEV, tag cut with TEV; expressed in E. coli BL21-AI
T1 sequence (A0A426EXV0 1-1174): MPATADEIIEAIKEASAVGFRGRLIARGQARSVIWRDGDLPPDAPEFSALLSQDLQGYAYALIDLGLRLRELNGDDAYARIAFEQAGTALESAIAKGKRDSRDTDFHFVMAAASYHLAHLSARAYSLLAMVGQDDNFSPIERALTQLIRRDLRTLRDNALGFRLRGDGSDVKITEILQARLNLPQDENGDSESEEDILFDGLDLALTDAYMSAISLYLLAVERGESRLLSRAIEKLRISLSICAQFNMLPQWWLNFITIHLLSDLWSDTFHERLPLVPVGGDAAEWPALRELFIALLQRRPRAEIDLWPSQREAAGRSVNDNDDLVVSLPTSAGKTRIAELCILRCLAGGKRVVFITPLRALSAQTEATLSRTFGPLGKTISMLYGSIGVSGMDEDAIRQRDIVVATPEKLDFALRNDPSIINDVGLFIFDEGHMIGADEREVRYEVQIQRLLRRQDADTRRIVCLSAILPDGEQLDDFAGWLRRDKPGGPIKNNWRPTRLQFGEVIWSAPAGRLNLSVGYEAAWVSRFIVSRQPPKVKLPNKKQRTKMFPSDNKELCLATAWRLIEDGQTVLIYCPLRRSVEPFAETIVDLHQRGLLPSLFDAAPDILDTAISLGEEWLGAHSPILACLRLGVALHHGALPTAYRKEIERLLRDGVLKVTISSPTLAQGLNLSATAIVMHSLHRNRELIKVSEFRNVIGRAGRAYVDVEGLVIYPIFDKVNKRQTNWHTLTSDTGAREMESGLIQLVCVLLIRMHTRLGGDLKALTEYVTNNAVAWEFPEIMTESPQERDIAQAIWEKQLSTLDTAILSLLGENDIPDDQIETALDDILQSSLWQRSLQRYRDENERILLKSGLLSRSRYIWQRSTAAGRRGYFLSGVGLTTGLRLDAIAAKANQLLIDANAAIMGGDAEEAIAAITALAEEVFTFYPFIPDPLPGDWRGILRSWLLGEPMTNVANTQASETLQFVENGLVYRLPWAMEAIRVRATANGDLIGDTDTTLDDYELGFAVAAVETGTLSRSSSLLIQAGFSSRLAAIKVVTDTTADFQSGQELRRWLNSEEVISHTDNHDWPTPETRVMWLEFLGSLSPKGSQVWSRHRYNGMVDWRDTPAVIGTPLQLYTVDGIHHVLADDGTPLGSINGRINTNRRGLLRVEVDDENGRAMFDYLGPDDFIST
Experiment: malachite green phosphate release assay
Format: biochemical
Conditions: 40 nM HamB, 100 nM ssDNA, 1 mM ATP, 2 mM MgSO4, pH 8.8, 37 °C, 30 min

SMILES: Nc1ncnc2c1ncn2[C@@H]1O[C@H](COP(=O)(O)OP(=O)(O)OP(=O)(O)O)[C@@H](O)[C@H]1O [ATP]
- malachite green phosphate release assay: we found strong HamB ATPase activity in the presence of single-stranded DNA
